According to patent US12312325B2, “Methods and compounds useful in the synthesis of an AAK1 inhibitor” (Lexicon Pharmaceuticals, Inc., priority 2022, dated 2025):
Structures can show the parent of a compound that is named as a salt. Values belong to the compound of their own block, whether it stands above or below them.

Tests used:
[1] = water solubility; assay type: physicochemical; conditions: at 25° C.
Experimental: (§1) Instead, the melting of Form I is observed to recrystallize to another, metastable form having a melting point of about 172.5° C.

[2] = storage stability of the crystalline form; assay type: physicochemical; conditions: stored at 40° C. and 75% relative humidity for up to four weeks
Experimental: as §1

[3] = system: PC12 cells; conditions: treatment with the kinase inhibitor; cited from earlier work

water solubility ([1]; listed as Form I): 26.8 mg/mL
SMILES: CC(C)C[C@](C)(N)COc1ccc(-c2ccnc(C(F)F)c2)nc1C(F)F [Compound K, ((S)-1-((2′,6-bis(difluoromethyl)-[2,4′-bipyridin]-5-yl)oxy)-2,4-dimethylpentan-2-aminiumdihydrogen phosphate]
stability on storage (form, morphology, purity) [2]: neither the form itself, its morphology, nor its purity changed

SMILES: COC(=O)[C@@]1(O)C[C@H]2O[C@]1(C)n1c3ccccc3c3c4c(c5c6ccccc6n2c5c31)C(=O)NC4 [Compound K252a, K252a]
Neuregulin-1 induced neurite outgrowth [3]: potentiation of Neuregulin-1 induced neurite outgrowth

water solubility ([1]; listed as hydrochloride salt of Compound J, hydrochloride): 2.9 mg/mL
SMILES: CC(C)C[C@](C)(N)COc1ccc(-c2ccnc(C(F)F)c2)nc1C(F)F [Compound S, (S)-1-((2′,6-bis(difluoromethyl)-[2,4′-bipyridin]-5-yl)oxy)-2,4-dimethylpentan-2-amine hydrochloride]
